From ChEMBL document CHEMBL1201862, “PubChem BioAssay data set” (2004)
Each block holds one compound with its values, some of them ahead of it. Active and inactive are the calls of the source.

What was measured:
[1] = target: T1, DNA repair and recombination protein RAD54-like (Homo sapiens, UniProt Q92698); experiment: RAD54 Holliday junction migration blockers – biochemical, fluorescence, cherry-picked samples, dose series, confirmation (AID 651657); format: functional
T1 sequence (Q92698 whole entry): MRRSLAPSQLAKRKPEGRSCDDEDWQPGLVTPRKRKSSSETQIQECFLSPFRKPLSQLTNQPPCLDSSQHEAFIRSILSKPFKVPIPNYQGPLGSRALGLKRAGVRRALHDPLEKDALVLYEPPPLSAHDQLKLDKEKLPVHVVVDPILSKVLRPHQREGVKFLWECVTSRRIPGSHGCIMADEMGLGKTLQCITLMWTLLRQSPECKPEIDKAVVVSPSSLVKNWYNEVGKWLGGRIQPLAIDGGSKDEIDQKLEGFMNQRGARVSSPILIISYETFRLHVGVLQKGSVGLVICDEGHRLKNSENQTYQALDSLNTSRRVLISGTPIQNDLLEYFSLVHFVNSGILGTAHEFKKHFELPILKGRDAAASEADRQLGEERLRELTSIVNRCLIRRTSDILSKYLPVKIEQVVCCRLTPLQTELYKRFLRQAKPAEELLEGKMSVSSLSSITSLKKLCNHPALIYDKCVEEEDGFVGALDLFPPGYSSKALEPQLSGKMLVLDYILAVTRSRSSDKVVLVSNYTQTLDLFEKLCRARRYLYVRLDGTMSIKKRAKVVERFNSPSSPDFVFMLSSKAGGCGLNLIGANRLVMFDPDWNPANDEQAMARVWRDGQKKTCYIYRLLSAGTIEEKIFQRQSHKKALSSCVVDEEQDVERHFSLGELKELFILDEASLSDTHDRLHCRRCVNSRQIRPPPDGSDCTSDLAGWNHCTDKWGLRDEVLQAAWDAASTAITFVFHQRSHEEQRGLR

[2] = target: T2, DNA repair protein RAD52 homolog (Homo sapiens, UniProt P43351); format: functional, biochemical
T2 sequence (P43351 whole entry): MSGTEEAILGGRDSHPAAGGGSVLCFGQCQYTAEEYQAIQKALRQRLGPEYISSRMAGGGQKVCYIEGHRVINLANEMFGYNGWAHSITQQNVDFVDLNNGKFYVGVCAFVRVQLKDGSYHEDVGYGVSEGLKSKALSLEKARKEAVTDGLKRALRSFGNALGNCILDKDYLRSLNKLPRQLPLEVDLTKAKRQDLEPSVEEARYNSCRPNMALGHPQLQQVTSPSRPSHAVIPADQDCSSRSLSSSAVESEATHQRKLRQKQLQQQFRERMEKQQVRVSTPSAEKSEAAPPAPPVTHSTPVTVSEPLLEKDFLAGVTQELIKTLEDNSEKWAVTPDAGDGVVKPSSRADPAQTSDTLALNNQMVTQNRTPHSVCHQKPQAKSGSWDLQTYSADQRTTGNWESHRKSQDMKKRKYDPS

[3] = A549 cell cytotoxicity, dose response, cytotoxicity control, plate reader, cherry-pick, antagonist series (AID 743412); format: functional, cell-based
[4] = toxicity toward HepG2 liver cells – cell-based, plate reader, cherry-pick, antagonist series, cytotoxicity control, dose response (AID 743416); format: functional
[5] = blockers of bursicon-stimulated LGR2 cAMP reporter – cell-based, HEK293, CRE-luciferase reporter, cherry pick, set 2, dose response (AID 743343); format: functional;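 note: transfected cells were stimulated with diluted bursicon conditioned medium after compound addition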
[6] = blockade of melanocortin 4 receptor signaling – cell-based, plate reader, cherry pick, counter-screen for LGR2 antagonist project, dose response (AID 743444); format: functional;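 note: transfected HEK 293 cells stimulated with alpha-MSH peptide; potency of inhibitors of the alpha-MSH evoked signal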
[7] = viability loss in HEK293 cells – cell-based, plate reader, cherry-picked samples, cytotoxicity control, dose response (AID 743446); format: functional
cells [8] = format: functional, cell-based
cells [9] = format: functional, cell-based; remark: listed apart in the source
[10] = growth inhibition of yeast DHODH-expressing 3D7 parasites – SYBR Green, dry powder samples, dose response (AID 1159570); format: functional, cell-based;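 note: parasite growth measured after 72 hours of compound exposure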
[11] = P. falciparum Dd2 growth inhibitors, dose response, SYBR Green, cherry-picked samples (AID 1159567); format: functional, cell-based
[12] = Dd2 malaria parasite growth inhibition potency – SYBR Green, dry powder samples, dose response (AID 1159566); format: functional, cell-based;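 note: potency for growth inhibition with lower SYBR green DNA signal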
[13] = growth inhibition of PfATP4-mutant resistant parasites – NITD609-resistant line, SYBR Green, dry powder, dose response (AID 1159571); format: functional, cell-based;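 note: parasites synchronized at ring stage by sorbitol before testing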
[14] = toxicity to human hepatoma HepG2 cells – cell-based, cherry-picked samples, cytotoxicity control, dose response (AID 1159577); format: functional
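Throughout, for EC50: agonist potency from rise in intracellular calcium fluorescence.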
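Throughout, for IC50: potency for blocking the ATP-evoked calcium rise so compounds act as antagonists.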

AC50 [1]: 8.57 µM (active)
AC50 [2]: 3.07 µM (active)
SMILES: COc1cc(-c2cnc3c(NC=O)cc(-c4cccc(C(=O)NCCN(C)C)c4)cn23)cc(OC)c1OC

SMILES: N#C[C@@H]1[C@H](c2ccc(C#Cc3ccccc3F)cc2)[C@H](CO)N1C(=O)C1CCCCC1
AC50 [3]: 17.6 µM (active)
AC50 [4]: 2.67 µM (active)
AC50 [5]: 20 µM (active)
AC50 [6]: 27.5 µM (active)
AC50 [7]: 14.3 µM (active)

SMILES: O=C(Cn1cnc2ccccc21)N/N=C/c1cccs1
IC50 (cells [8]): > 29.9 µM (inactive)
EC50 (cells [9]): > 29.9 µM (inactive)

SMILES: O=C(CNC(=O)c1cccc(F)c1)N/N=C/C=C/c1ccccc1
IC50 (cells [8]): > 29.9 µM (inactive)
EC50 (cells [9]): > 29.9 µM (inactive)

SMILES: C[C@H](CO)N1C[C@H](C)[C@@H](CN(C)C(=O)Nc2cccc3ccccc23)Oc2ccc(NC(=O)Nc3ccc(C(F)(F)F)cc3)cc2C1=O
AC50 [10]: 1.37 µM (active)
AC50 [11]: 1.81 µM (active)
AC50 [12]: 1.44 µM (active)
AC50 [13]: 1.21 µM (active)

SMILES: COc1ccc2c3c(n(C)c2c1)[C@@H](CO)N(C(=O)C1CCCC1)CC31CCN(C(=O)Nc2cccc(F)c2)CC1
AC50 [10]: 0.0947 µM (active)
AC50 [11]: 0.672 µM (active)
AC50 [12]: 0.418 µM (active)
AC50 [13]: 0.239 µM (active)

SMILES: C[C@H](CO)N1C[C@H](C)[C@H](CN(C)C(=O)c2cc(Cl)cc(Cl)c2)OCc2ccccc2-c2c(n(C)c3ccccc23)C1=O
AC50 [11]: 4.11 µM (active)
AC50 [14]: > 39 µM (inactive)

SMILES: CC(C)CC#Cc1ccc([C@H]2[C@H](CO)N3CCCCN(S(=O)(=O)Cc4ccccc4)C[C@@H]23)cc1
AC50 [11]: 4.8 µM (active)
AC50 [14]: 9.45 µM (active)

SMILES: C[C@@H]1CN([C@H](C)CO)C(=O)c2ccccc2-c2ccccc2CO[C@@H]1CN(C)Cc1ccccc1C(F)(F)F
AC50 [11]: 2.79 µM (active)
AC50 [14]: 15.7 µM (active)
